Results on one compound are retold here after ChEMBL document CHEMBL1150116, “Huperzine R, a novel 15-carbon Lycopodium alkaloid from Huperzia serrata” (J Nat Prod, 2002).

The target of the test is Acetylcholinesterase (Homo sapiens) (UniProt P22303). Kind of test: Inhibition of AChE at 95 umol.

Molecules are shown by their SMILES.

Sequence of Acetylcholinesterase (Homo sapiens) (P22303 whole entry): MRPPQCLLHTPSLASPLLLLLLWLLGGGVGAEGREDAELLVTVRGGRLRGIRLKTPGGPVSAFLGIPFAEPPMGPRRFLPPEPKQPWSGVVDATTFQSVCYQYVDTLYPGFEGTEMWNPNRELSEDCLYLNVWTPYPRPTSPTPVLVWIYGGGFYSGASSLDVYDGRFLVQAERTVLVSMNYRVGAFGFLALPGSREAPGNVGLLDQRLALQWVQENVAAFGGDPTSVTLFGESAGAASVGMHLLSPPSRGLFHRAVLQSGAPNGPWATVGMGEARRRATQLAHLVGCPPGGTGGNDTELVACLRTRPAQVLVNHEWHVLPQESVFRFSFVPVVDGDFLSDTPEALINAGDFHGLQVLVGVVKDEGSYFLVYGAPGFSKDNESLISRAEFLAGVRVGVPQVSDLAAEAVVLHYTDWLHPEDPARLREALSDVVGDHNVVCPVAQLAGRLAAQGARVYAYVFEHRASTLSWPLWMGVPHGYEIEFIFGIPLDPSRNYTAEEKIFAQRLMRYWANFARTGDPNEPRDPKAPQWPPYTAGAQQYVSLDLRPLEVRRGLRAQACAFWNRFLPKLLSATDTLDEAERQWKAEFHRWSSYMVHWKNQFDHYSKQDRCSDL

The compound `C[C@H]1CC(=O)N2CCCC3=C(C1)C(=O)O[C@H]3CCC2` returned an inhibition of 27%.

For orientation: inhibition means the change of the read-out against control, counted positive when it falls.
